Test results from publication PMC10470053, “Diverse p120RasGAP interactions with doubly phosphorylated partners EphB4, p190RhoGAP, and Dok1” (The Journal of Biological Chemistry, 2023).
Values joined by “and” are separate entries in the source; they are usually repeats but may differ in a detail not shown here. Identical values can stand only once. Like-named read-outs stand apart in the source and are kept apart here. One block for each molecule: values may come before it. Square brackets hold non-standard residues; d marks the D form. Ends that are not written are not given here. Peptide text beside a SMILES is read from it. pY = N[C@@H](Cc1ccc(OP(=O)(O)O)cc1)C(=O)O

Columns and labels:
[1] = molecular target: T1, RasGAP^232 (p120RasGAP N-SH2, SH3, C-SH2, residues 174–444) (Homo sapiens, UniProt P20936, C236S/C261S/C372S/C402S); assay: Isothermal titration calorimetry, WT RasGAP^232 with phosphopeptides; assay type: binding
T1 construct: (residues 174–444, termed RasGAP^232); hexahistidine (TEV-cleavable) (N, cleaved yes); made in house; host or cells: E. coli Rosetta (DE3)
T1 sequence (P20936 174-444 C236S/C261S/C372S/C402S): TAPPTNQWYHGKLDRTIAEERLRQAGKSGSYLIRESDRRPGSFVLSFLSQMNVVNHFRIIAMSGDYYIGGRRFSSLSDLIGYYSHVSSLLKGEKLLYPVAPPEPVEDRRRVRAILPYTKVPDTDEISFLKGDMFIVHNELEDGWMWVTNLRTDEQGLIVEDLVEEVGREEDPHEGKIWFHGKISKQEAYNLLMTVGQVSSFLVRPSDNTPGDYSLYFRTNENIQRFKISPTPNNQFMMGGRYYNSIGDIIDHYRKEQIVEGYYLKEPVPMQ
Description: (§1) We expressed and purified the region of RasGAP encompassing both SH2 domains with a construct that includes the N-SH2, SH3, and C-SH2 domains (residues 174–444, termed RasGAP^232 ([50])) (Figs. 1A and S2A). Separately, we synthesized peptides containing both phosphotyrosine residues for EphB4 and Dok1 (Fig. 1C). Our previous isothermal titration calorimetry (ITC) study assessed the affinity of RasGAP^232 for doubly phosphorylated p190RhoGAP-A peptide and found a Kd of 10 ± 6 nM for tandem engagement of both phosphotyrosines by both SH2 domains ([50]).
Synthetic peptides were purchased from GenScript and contain N-terminal acetylation and C-terminal amidation for stability. The doubly phosphorylated EphB4 peptide (UniProt ID P54760) used in ITC and SAXS experiments contains residues 586 to 602 (GTKV[pTyr]IDPFT[pTyr]EDPNEA). The singly phosphorylated EphB4 peptides pY590 and pY596 used in ITC experiments contain the residues 586 to 595 (GTKV[pTyr]IDPFT) and residues 592 to 602 (DPFT[pTyr]EDPNE), respectively. The p190RhoGAP peptide (UniProt ID Q9NRY4) used in SAXS experiments contains the residues 1083 to 1111 (SD[pTyr]AEPMDAVVKPRNEEENI[pTyr]SVPH). The Dok1 peptide (UniProt ID Q99704) used in ITC and SAXS experiments contains the residues 291 to 322 (SPPAL[pTyr]AEPLDSLRIAPCPSQDSL[pTyr]SDPLDST). Lyophilized peptides were reconstituted in water, and less soluble peptides (pYpYEphB4 and pY590) were spiked with 20 mM Tris pH 8 or 10 mM NaOH to increase solubility. Concentrations of stock peptides are as follows: pYpY190 stock concentration is 10 mM; pYpYEphB4 stock concentration is 2.5 mM; Dok1 stock concentration is 5.5 mM; pY596 stock concentration is 10 mM; and pY590 stock concentration is 8 mM.
Purified RasGAP^232 protein and solubilized peptides were dialyzed overnight against buffer containing 20 mM Tris pH 8, 250 mM NaCl in Slide-A-Lyzer 3 ml 10 kDa molecular weight cut off cassettes (Spectra-Por) and Micro Float-A-Lyzer 0.1 to 0.2 ml, 0.1 to […] molecular weight cut off devices (Spectra-Por), respectively. Protein and peptide concentrations were determined by A280 measured on a Nanodrop Lite (Thermo Fisher Scientific) instrument using extinction coefficients of 45,840 M^−1 cm^−1 for RasGAP^232 (and mutants), 917 M^−1 cm^−1 for the doubly phosphorylated EphB4 peptide, and 458.5 M^−1 cm^−1 for the singly phosphorylated EphB4 peptides as determined by ([74]). Dok1 peptide concentration was confirmed using Amino Acid Analysis performed at UC Davis Molecular Structure Facility. Samples were centrifuged for 10 min at 4 °C and degassed for 7 min using a Degassing Station (TA Instruments). ITC experiments were performed on a Nano ITC (TA Instruments) by loading protein into the 190 μl sample cell and titrating 20 times with 2.5 μl peptide in the titration syringe. Concentrations for sample cell and syringe for each trial are included in Table S1. The data were analyzed in NanoAnalyze software (TA Instrument) using blank (constant) and independent models (https://www.tainstruments.com/itcrun-dscrun-nanoanalyze-software/).

[2] = molecular target: T1, RasGAP^232 (p120RasGAP N-SH2, SH3, C-SH2, residues 174–444); conditions: ref ([50]), cited from earlier work
Description: as §1, with “Table 1 Isothermal titration calorimetry measurements for p120RasGAP with phosphotyrosine-containing binding partners | column: Kd (μM); n; ΔH (kJ/mol); ΔS (J/mol∗K) || We” for “We”, “([50]). In our current study, titration of the dou ...” for “([50]).”

[3] = ITC, average of trials (Table S1)

n ([1]; ITC stoichiometry, mean ± SD of trials): 0.8 ± 0.1 | Kd ([1]; ITC, 20 mM Tris pH 8, 250 mM NaCl, independent model, mean ± SD of trials (n = 4 EphB4, n = 3 Dok1)): 0.03 ± 0.02 µM | -T∆S [1, 3]: 35 kJ/mol | Ka [1, 3]: 40 µM⁻¹ | ∆G [1, 3]: -43 kJ/mol | ΔH ([1]; ITC, mean ± SD of trials): -78 kJ/mol and -78 ± 3 kJ/mol | ΔS ([1]; ITC, mean ± SD of trials): -120 J/mol∗K and −120 ± 14 J/mol∗K | -T∆S ([1]; trial 1, ITC): 30 kJ/mol | Ka ([1]; trial 1, ITC): 63 µM⁻¹ | ∆G ([1]; trial 1, ITC): -44 kJ/mol | ∆H ([1]; trial 1, ITC): -75 kJ/mol | ∆S ([1]; trial 1, ITC): -102 J/mol*K | -T∆S ([1]; trial 2, ITC): 39 kJ/mol | Ka ([1]; trial 2, ITC): 21 µM⁻¹ | ∆G ([1]; trial 2, ITC): -42 kJ/mol | ∆H ([1]; trial 2, ITC): -81 kJ/mol | ∆S ([1]; trial 2, ITC): -131 J/mol*K | -T∆S ([1]; trial 3, ITC): 35 kJ/mol | Ka ([1]; trial 3, ITC): 43 µM⁻¹ | ∆G ([1]; trial 3, ITC): -44 kJ/mol | ∆H ([1]; trial 3, ITC): -78 kJ/mol | ∆S ([1]; trial 3, ITC): -116 J/mol*K
Molecule: CC[C@H](C)[C@H](NC(=O)[C@H](CCCNC(=N)N)NC(=O)[C@H](CC(C)C)NC(=O)[C@H](CO)NC(=O)[C@H](CC(=O)O)NC(=O)[C@H](CC(C)C)NC(=O)[C@@H]1CCCN1C(=O)[C@H](CCC(=O)O)NC(=O)[C@H](C)NC(=O)[C@H](Cc1ccc(OP(=O)(O)O)cc1)NC(=O)[C@H](CC(C)C)NC(=O)[C@H](C)NC(=O)[C@@H]1CCCN1C(=O)[C@@H]1CCCN1C(=O)[C@H](CO)NC(C)=O)C(=O)N[C@@H](C)C(=O)N1CCC[C@H]1C(=O)N[C@@H](CS)C(=O)N1CCC[C@H]1C(=O)N[C@@H](CO)C(=O)N[C@@H](CCC(N)=O)C(=O)N[C@@H](CC(=O)O)C(=O)N[C@@H](CO)C(=O)N[C@@H](CC(C)C)C(=O)N[C@@H](Cc1ccc(OP(=O)(O)O)cc1)C(=O)N[C@@H](CO)C(=O)N[C@@H](CC(=O)O)C(=O)N1CCC[C@H]1C(=O)N[C@@H](CC(C)C)C(=O)N[C@@H](CC(=O)O)C(=O)N[C@@H](CO)C(=O)N[C@H](C(N)=O)[C@@H](C)O [pYpY Dok1] (Ac-SPPAL[pY]AEPLDSLRIAPCPSQDSL[pY]SDPLDST-NH2)

affinity tighter than individual SH2–phosphotyrosine interactions ([1]; ITC Kd, compared with individual SH2 interactions (Table 1, ref [60])): 15- to 30 fold
Molecule: SD[pY]AEPMDAVVKPRNEEENI[pY]SVPH [pYpY p190RhoGAP-A, Doubly phosphorylated p190RhoGAP-A peptide (pY1087, pY1105)]
n ([2]; ITC stoichiometry): 0.6 ± 0.1 | Kd ([2]; ITC): 0.01 ± 0.006 µM | ΔH ([2]; ITC): -130 ± 20 kJ/mol | ΔS ([2]; ITC): −281 ± 77 J/mol∗K
